Measurements from patent US9751869B2, “LXR modulators” (BRISTOL-MYERS SQUIBB COMPANY, priority 2013, dated 2017).

Biological target: T1, LXRβ (Homo sapiens, UniProt P55055)
T1 construct: Co-transfection expression plasmids, comprising full-length LXRα (pCMX-h LXRα or LXRβ (pCMX-hLXRβ)); expressed in transfected cells; host or cells: CV-1 African green monkey kidney cells, transient transfection with pCMX-hLXRβ
T1 sequence (P55055 1-460): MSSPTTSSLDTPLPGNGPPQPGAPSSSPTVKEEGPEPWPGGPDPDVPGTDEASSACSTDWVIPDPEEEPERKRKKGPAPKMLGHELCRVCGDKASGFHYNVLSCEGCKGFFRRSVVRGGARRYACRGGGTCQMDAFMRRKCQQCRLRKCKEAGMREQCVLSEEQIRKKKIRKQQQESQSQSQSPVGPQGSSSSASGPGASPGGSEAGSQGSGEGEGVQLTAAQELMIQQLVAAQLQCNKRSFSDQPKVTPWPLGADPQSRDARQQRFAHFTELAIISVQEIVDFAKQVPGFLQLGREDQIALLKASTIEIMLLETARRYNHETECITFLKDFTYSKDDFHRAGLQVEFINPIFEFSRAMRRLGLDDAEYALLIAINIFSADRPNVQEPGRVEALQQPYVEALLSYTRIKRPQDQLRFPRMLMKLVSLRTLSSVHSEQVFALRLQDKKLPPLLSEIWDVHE
T1 sequence (P19793 1-462 partner): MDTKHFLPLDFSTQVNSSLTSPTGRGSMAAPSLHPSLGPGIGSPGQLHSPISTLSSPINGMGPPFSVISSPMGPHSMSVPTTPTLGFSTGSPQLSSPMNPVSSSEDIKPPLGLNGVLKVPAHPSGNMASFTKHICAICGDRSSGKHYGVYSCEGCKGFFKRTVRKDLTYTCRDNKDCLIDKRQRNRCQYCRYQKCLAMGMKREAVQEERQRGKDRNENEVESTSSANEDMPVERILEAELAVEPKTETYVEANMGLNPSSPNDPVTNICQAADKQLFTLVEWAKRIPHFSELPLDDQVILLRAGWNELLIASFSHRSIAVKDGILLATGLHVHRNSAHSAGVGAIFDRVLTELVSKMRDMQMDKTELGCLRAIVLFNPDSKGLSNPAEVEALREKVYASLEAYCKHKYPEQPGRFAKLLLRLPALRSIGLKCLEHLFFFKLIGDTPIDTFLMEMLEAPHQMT
Assay: LXR/LXRE co-transfection assay (luciferase reporter) in CV-1 cells, LXRβ
Assay type: cell-based
Details: for EC50: CV-1 cells transfected with pCMX-hLXRβ and LXREx1-Tk-Luciferase, 20 hours incubation, read-out: LXRbeta agonism EC50; for Emax / LXRbeta % EFFICACY: CV-1 cells, relative to maximum response of high control N-(3-((4-fluorophenyl)-(naphthalene-2-sulfonyl)amino)propyl)-2,2-dimethylpropionamide; for Emax: read-out: LXRbeta % EFFICACY
Excerpt: To measure the ability of compounds to activate or inhibit the transcriptional activity of LXR in a cell based assay, the co-transfection assay was used. It has been shown that LXR functions as a heterodimer with RXR. For the co-transfection assay, expression plasmids for LXRα and LXRβ are introduced separately via transient transfection into mammalian cells along with a luciferase reporter plasmid that contains one copy of a DNA sequence that is bound by LXR-RXR heterodimers (LXRE; Willy, P. et. al. 1995). LXRs heterodimerize with the endogenous RXR. Treatment of transfected cells with an LXR agonist increases the transcriptional activity of LXR, which is measured by an increase in luciferase activity.
Co-transfection expression plasmids, comprising full-length LXRα (pCMX-h LXRα or LXRβ (pCMX-hLXRβ), reporter plasmid (LXREx1-Tk-Luciferase), and control (pCMX-Galactosidase expression vector) (Willey et al. Genes & Development 9 1033-1045 (1995)).
CV-1 cells were prepared 24 hours prior to the experiment by plating them into T-175 flasks or 500 cm^2 dishes in order to achieve 70-80% confluency on the day of the transfection. The number of cells to be transfected was determined by the number of plates to be screened. Each well of a 384 well plate requires 1.5×10^4 cells. DNA Transfection Reagent was prepared by mixing the required plasmid DNAs with a cationic lipid transfection reagent Transit 2020 (Mirus Bio) for CV1 by following the instructions provided with the reagents. Optimal DNA amounts were determined empirically per cell line and size of vessel to be transfected. For each T175 cm^2 flask a total of 44.4 ug for CV1 of DNA, 133 ul Transit2020 and 4.5 ml DMEM for CV1 was mixed and added. Cells were then incubated at least 5 hours at 37° C. to prepare screening cells.
Assay plates were prepared by dispensing 5 μL of compound per well of a 384 well plate to achieve final compound concentration of 10 μM and no more than 0.5% DMSO. Media was removed from the screening cells, the cells trypsinized, harvested cells by centrifugation, counted, and plated at a density of approximately 1.5×10^4 cells in the 384 well assay plate prepared above in a volume of about 95 uL. Assay plates containing both compounds and screening cells (100 μL in total volume) were incubated for 20 hours at 37° C.
After incubation with compounds, media was removed from the cells and luciferase assay reagent (30 μL/well) added. After ˜2 minutes at ambient temperature, the assay plates were read on a luminometer (PE Biosystems Northstar reader with on-board injectors, or Envision (Perkin Elmer) or equivalent).
The LXR/LXRE co-transfection assay can be used to establish the EC50/IC50 values for potency and percent activity or inhibition for efficacy. Efficacy defines the activity of a compound relative to a high control ((N-(3-((4-fluorophenyl)-(naphthalene-2-sulfonyl)amino)propyl)-2,2-dimethylpropionamide)) or a low control (DMSO/vehicle). The dose response curves are generated from a 10 point curve with concentrations differing by ½ LOG units. Each point represents the average of 4 wells of data from a 384 well plate.
The data from this assay is fitted to the following equation, from which the EC50 value may be solved: Y=Bottom+(Top−Bottom)/(1+10^((log EC50-X)*HillSlope)).
The EC50/IC50 is therefore defined as the concentration at which an agonist or antagonist elicits a response that is halfway between the Top (maximum) and Bottom (baseline) values. The EC50/IC50 values represented are the averages of at least 2 and normally 3 independent experiments. The determination of the relative efficacy or % control for an agonist is by comparison to the maximum response achieved by ((N-(3-((4-fluorophenyl)-(naphthalene-2-sulfonyl)-amino)propyl)-2,2-dimethylpropionamide) that is measured individually in each dose response experiment.
Table 1 lists LXRβ EC50 values and % efficacy measurements in the cotransfection assay for examples of this invention.

Structure (SMILES): Cc1nc(-c2ccc(Cl)c(OC(F)F)c2)c(-c2cc(-c3cc(F)c(CO)c(S(C)(=O)=O)c3)ccc2-n2ccc(C(F)(F)F)n2)o1 [Example 356, (3′-(4-(4-chloro-3-(difluoromethoxy)phenyl)-2-methyloxazol-5-yl)-3-fluoro-5-(methylsulfonyl)-4′-(3-(trifluoromethyl)-1H-pyrazol-1-yl)biphenyl-4-yl)methanol]
- EC50: 71 nM
- Emax: 63%

Structure (SMILES): CNC(=O)C(F)(F)c1cc(-c2ccc(-c3cc(F)c(CO)c(S(C)(=O)=O)c3)cc2-c2oc(C)nc2-c2ccc(OC(F)F)c(F)c2)n(C)n1 [Example 78, 2-(5-(3-(4-(4-(difluoromethoxy)-3-fluorophenyl)-2-methyloxazol-5-yl)-3′-fluoro-4′-(hydroxymethyl)-5′-(methylsulfonyl)biphenyl-4-yl)-1-methyl-1H-pyrazol-3-yl)-2,2-difluoro-N-methylacetamide]
- EC50: 72 nM
- Emax: 79%

Structure (SMILES): Cc1nc(-c2ccc3c(c2)OC(F)(F)O3)c(-c2cc(-c3cc(F)c(CO)c(S(C)(=O)=O)c3)ccc2-c2cc(C(=O)NCC3CC3)nn2C)o1 [Example 110, N-(cyclopropylmethyl)-5-(3-(4-(2,2-difluorobenzo[d][1,3]dioxol-5-yl)-2-methyloxazol-5-yl)-3′-fluoro-4′-(hydroxymethyl)-5′-(methylsulfonyl)-[1,1′-biphenyl]-4-yl)-1-methyl-1H-pyrazole-3-carboxamide]
- EC50: 244 nM
- Emax: 55%

Structure (SMILES): Cc1nc(-c2ccc3c(c2)OC(F)(F)O3)c(-c2cc(-c3cccc(S(C)(=O)=O)c3)ccc2-c2cc(C(C)C#N)nn2C)o1 (centres unmarked) [Example 117, 2-(5-(3-(4-(2,2-difluorobenzo[d][1,3]dioxol-5-yl)-2-methyloxazol-5-yl)-3′-(methylsulfonyl)-[1,1′-biphenyl]-4-yl)-1-methyl-1H-pyrazol-3-yl)propanenitrile]
- EC50: 49 nM
- LXRbeta % EFFICACY: 70%

Structure (SMILES): Cn1nc(C(F)F)cc1-c1ccc(-c2cc(F)c(CO)c(S(C)(=O)=O)c2)cc1-n1nncc1-c1ccc(OC(F)(F)F)cc1 [Example 23, {4′-[3-(difluoromethyl)-1-methyl-1H-pyrazol-5-yl]-3-fluoro-5-(methylsulfonyl)-3′-(5-{4-[(trifluoromethyl)oxy]phenyl}-1H-1,2,3-triazol-1-yl)biphenyl-4-yl}methanol]
- EC50: 42 nM
- Emax: 79%

Structure (SMILES): Cc1nc(-c2ccc3c(c2)OC(F)(F)O3)c(-c2cc(-c3cc(F)c(CO)c(S(C)(=O)=O)c3)ccc2-c2cc(C(=O)NC(C)(C)C)nn2C)o1 [Example 114, N-(tert-butyl)-5-(3-(4-(2,2-difluorobenzo[d][1,3]dioxol-5-yl)-2-methyloxazol-5-yl)-3′-fluoro-4′-(hydroxymethyl)-5′-(methylsulfonyl)-[1,1′-biphenyl]-4-yl)-1-methyl-1H-pyrazole-3-carboxamide]
- EC50: 273 nM
- Emax: 28%

Structure (SMILES): Cc1nc(-c2ccc(OC(F)F)nc2)c(-c2cc(-c3cc(F)c(CO)c(S(C)(=O)=O)c3)ccc2-n2ccc(C(F)(F)F)n2)o1 [Example 354, (3′-(4-(6-(difluoromethoxy)pyridin-3-yl)-2-methyloxazol-5-yl)-3-fluoro-5-(methylsulfonyl)-4′-(3-(trifluoromethyl)-1H-pyrazol-1-yl)biphenyl-4-yl)methanol]
- EC50: 10 nM
- Emax: 101%

Structure (SMILES): COCC(F)(F)c1cc(-c2ccc(-c3cccc(S(C)(=O)=O)c3)cc2-n2nncc2-c2ccc(OC(F)(F)F)cc2)n(C)n1 [Example 16, 1-[4-{3-[1,1-difluoro-2-(methyloxy)ethyl]-1-methyl-1H-pyrazol-5-yl}-3′-(methylsulfonyl)biphenyl-3-yl]-5-{4-[(trifluoromethyl)oxy]phenyl}-1H-1,2,3-triazole]
- EC50: 163 nM
- Emax: 89%

Structure (SMILES): CC(O)C(F)(F)c1cc(-c2ccc(-c3cccc(S(C)(=O)=O)c3)cc2-n2nncc2-c2ccc(OC(F)(F)F)cc2)n(C)n1 (centres unmarked) [Example 1, 1,1-difluoro-1-(1-methyl-5-(3′-(methylsulfonyl)-3-(5-(4-(trifluoromethoxy)phenyl)-1H-1,2,3-triazol-1-yl)biphenyl-4-yl)-1H-pyrazol-3-yl)propan-2-ol]
- EC50: 783 nM
- Emax: 68%

Structure (SMILES): Cc1nc(-c2ccc(OC(F)F)cc2)c(-c2cc(-c3ccc(CO)c(S(C)(=O)=O)c3)ccc2-n2nc(C(F)(F)F)cc2C)o1 [Example 326, (3′-(4-(4-(difluoromethoxy)phenyl)-2-methyloxazol-5-yl)-4′-(5-methyl-3-(trifluoromethyl)-1H-pyrazol-1-yl)-3-(methylsulfonyl)biphenyl-4-yl)methanol]
- EC50: 15 nM
- Emax: 77%

Structure (SMILES): Cc1nc(-c2ccc3c(c2)OC(F)(F)O3)c(-c2cc(-c3cccc(S(C)(=O)=O)c3)ccc2-c2cc(C(F)(F)C(N)=O)nn2C)o1 [Example 73, 2-(5-(3-(4-(2,2-difluorobenzo[d][1,3]dioxol-5-yl)-2-methyloxazol-5-yl)-3′-(methylsulfonyl)biphenyl-4-yl)-1-methyl-1H-pyrazol-3-yl)-2,2-difluoroacetamide]
- EC50: 42 nM
- Emax: 55%

Structure (SMILES): Cc1nc(-c2cc(-c3cc(F)c(CO)c(S(C)(=O)=O)c3)ccc2-n2ccc(C(F)(F)F)n2)c(-c2ccc(Cl)c(OC(F)F)c2)o1 [Example 396, (3′-(5-(4-chloro-3-(difluoromethoxy)phenyl)-2-methyloxazol-4-yl)-3-fluoro-5-(methylsulfonyl)-4′-(3-(trifluoromethyl)-1H-pyrazol-1-yl)biphenyl-4-yl)methanol]
- EC50: 90 nM
- Emax: 67%

Structure (SMILES): Cc1nc(-c2ccc3c(c2)OC(F)(F)O3)c(-c2cc(-c3cccc(S(C)(=O)=O)c3)ccc2-c2cc(C(F)(F)CO)nn2C)o1 [Example 49, 2-(5-(3-(4-(2,2-difluorobenzo[d][1,3]dioxol-5-yl)-2-methyloxazol-5-yl)-3′-(methylsulfonyl)biphenyl-4-yl)-1-methyl-1H-pyrazol-3-yl)-2,2-difluoroethanol]
- EC50: 86 nM
- LXRbeta % EFFICACY: 69%
